Experimental data reported in US9180129B2, “Combination of lapatinib and trametinib” (NOVARTIS AG, priority 2010, dated 2015).
Like-named read-outs stand apart in the source and are kept apart here.

Legend:
SW780 = assay: Cell growth inhibition assay, SW780 (bladder); format: cell-based; details: Homo sapiens, 72 h, 3 days, read-out: Single agent IC50 (μM), mean ± STD
Protocol: (§1) All lines were kept in a humidified incubator at 37° C. in 95% air and 5% CO2. JIMT-1 is a cell line established from a tumor of a patient with trastuzumab-resistant breast cancer (Tanner et al, Mol Cancer Ther 2004; 3:1585-92).
(§2) All cells were cultured for a minimum of 72 hours prior to cell plating. Cells were seeded in a 96-well tissue culture plate (NUNC 136102) of RPMI media containing 10% FBS for all cell lines at 2,000 cells per well except KPL4, which was plated in DMEM containing 5% FBS at 500 cells per well. […] Cells were incubated in the presence of compounds for 3 days. ATP levels were determined by adding Cell Titer Glo® reagent (Promega) according to the manufacturer's protocol. Briefly, Cell Titer Glo® reagent was added to each plate, incubated for 20 minutes then the luminescent signal was read on the SpectraMax L plate reader with a 0.5 sec integration time.
(§3) Inhibition of cell growth was estimated after treatment with compound or a combination of compounds for three days and comparing the signal to cells treated with vehicle (DMSO). Cell growth was calculated relative to vehicle (DMSO) treated control wells. […]

[1] = tested on: five colorectal cancer cell lines; assay: Cell growth inhibition assay, colorectal lines; format: cell-based; details: Homo sapiens; span over the five colorectal cancer cell lines of Table 1; read-out: IC50 values, single agent
SW403 = assay: Cell growth inhibition assay, SW403 (colorectal); format: cell-based; details: Homo sapiens, SW-403, 72 h, 3 days, read-out: Single agent IC50 (μM), mean ± STD
Protocol: as §1, §2, §3

SKMEL5 = assay: Cell growth inhibition assay, SKMEL5 (melanoma); format: cell-based, Human; details: 3 days, read-out: Single agent IC50 (μM), mean ± STD
Protocol: as §1, §2
(§4) Inhibition of cell growth was estimated after treatment with compound or a combination of compounds for three days and comparing the signal to cells treated with vehicle (DMSO). Cell growth was calculated relative to vehicle (DMSO) treated control wells. A concentration of the compound that inhibits 50% of control cell growth (IC50) was interpolated using nonlinear regression with the equation, y=(A+(B−A)/(1+(C/x)^D)))), where A is the minimum response (ymin), B is the maximum response (ymax), C is the inflection point of the curve (EC50) and D is the Hill coefficient. […]

NCI-H747 = assay: Cell growth inhibition assay, NCI-H747 (colorectal); format: cell-based; details: Homo sapiens, 72 h, 3 days, read-out: Single agent IC50 (μM), mean ± STD
Protocol: as §1, §2, §3

647V = assay: Cell growth inhibition assay, 647V (bladder); format: cell-based; details: Homo sapiens, 72 h, 3 days, read-out: Single agent IC50 (μM), mean ± STD
Protocol: as §1, §2, §3

T84 = assay: Cell growth inhibition assay, T84 (colorectal); format: cell-based; details: Homo sapiens, 72 h, 3 days, read-out: Single agent IC50 (μM), mean ± STD
Protocol: as §1, §2, §3

SUM149 = assay: Cell growth inhibition assay, SUM149 (breast HER2−); format: cell-based; details: Homo sapiens, SUM149, 72 h, 3 days, read-out: Single agent IC50 (μM), mean ± STD
Protocol: as §1, §2, §3

HPAF-11 = assay: Cell growth inhibition assay, HPAF-11 (pancreatic); format: cell-based; details: Homo sapiens, 72 h, 3 days, read-out: Single agent IC50 (μM), mean ± STD
Protocol: as §1, §2, §3

[2] = tested on: three pancreatic cancer cell lines; assay: Cell growth inhibition assay, pancreatic lines; format: cell-based, Human; details: HPAF-11, Capan-1 and SUIT2
Protocol: as §1, §2, §3

A375 S2 = assay: Cell growth inhibition assay, A375 S2 (melanoma); format: cell-based; details: Homo sapiens, A375-S2, 72 h, 3 days, read-out: Single agent IC50 (μM), mean ± STD
Protocol: as §1, §2, §3

NCI-H508 = assay: Cell growth inhibition assay, NCI-H508 (colorectal); format: cell-based; details: Homo sapiens, 72 h, 3 days, read-out: Single agent IC50 (μM), mean ± STD
Protocol: as §1, §2, §3

HCC1954 = assay: Cell growth inhibition assay, HCC1954 (breast HER2+); format: cell-based; details: Homo sapiens, 72 h, 3 days, read-out: Single agent IC50 (μM), mean ± STD
Protocol: as §1, §2, §3

MDAMB175VII = assay: Cell growth inhibition assay, MDAMB175VII (breast HER2−); format: cell-based; details: Homo sapiens, MDA-MB-175-VII, 72 h, 3 days, read-out: Single agent IC50 (μM), mean ± STD
Protocol: as §1, §2, §3

CHL1 = assay: Cell growth inhibition assay, CHL1 (melanoma); format: cell-based; details: Homo sapiens, CHL-1, 72 h, 3 days, read-out: Single agent IC50 (μM), mean ± STD
Protocol: as §1, §2, §3

Capan-1 = assay: Cell growth inhibition assay, Capan-1 (pancreatic); format: cell-based; details: Homo sapiens, 72 h, 3 days, read-out: Single agent IC50 (μM), mean ± STD
Protocol: as §1, §2, §3

JimT-1 = assay: Cell growth inhibition assay, JimT-1 (breast HER2+, trastuzumab-resistant); format: cell-based, Human; details: for IC50: Homo sapiens, 72 h, JimT-1, 3 days, read-out: Single agent IC50 (μM), mean ± STD; for sensitivity to cell growth inhibition, in words: JIMT-1 HER2+ breast cancer line
Protocol: as §1, §2, §4

MDA-MB-453 = assay: Cell growth inhibition assay, MDA-MB-453 (breast HER2+); format: cell-based; details: Homo sapiens, 72 h, 3 days, read-out: Single agent IC50 (μM), mean ± STD
Protocol: as §1, §2, §3

LS174T = assay: Cell growth inhibition assay, LS174T (colorectal); format: cell-based; details: Homo sapiens, 72 h, 3 days, read-out: Single agent IC50 (μM), mean ± STD
Protocol: as §1, §2, §3

BT474-J4 [3] = assay: Cell growth inhibition assay, BT474-J4 (breast HER2+, acquired resistance to Compound A); format: cell-based; details: Homo sapiens, 72 h, 3 days, read-out: Single agent IC50 (μM), mean ± STD
Protocol: as §1, §2, §3

BFTC-905 = assay: Cell growth inhibition assay, BFTC-905 (bladder); format: cell-based; details: Homo sapiens, 72 h, 3 days, read-out: Single agent IC50 (μM), mean ± STD
Protocol: as §1, §2, §3

KPL4 = assay: Cell growth inhibition assay, KPL4 (breast HER2+); format: cell-based; details: Homo sapiens, KPL4, 72 h, 3 days, read-out: Single agent IC50 (μM), mean ± STD
Protocol: All cells were cultured for a minimum of 72 hours prior to cell plating. […] Cells were incubated in the presence of compounds for 3 days.
Cell growth was calculated relative to vehicle (DMSO) treated control wells.
In general, a CI value <0.9, between 0.9 and 1.1, or >1.1 indicates synergy, additivity and antagonism, respectively. In general, the smaller the CI number, the greater is the strength of synergy.

BT474 [4] = assay: Cell apoptosis assay, DNA fragmentation, BT474; format: cell-based, Human; details: 48 hours, Roche Cell Death ELISA, combination at 2 to 1 molar ratio A:B (FIG. 2B)
Protocol: as §1
(§5) For investigation of the induction of apoptosis, cells were plated at 5,000 cells per well in a 96-well tissue culture plate and allowed to attach for approximately 24 hours. Forty-eight hours after treatment with compounds, levels of apoptosis were estimated using the Roche Cell Death ELISA kit (Cat. No. 11 774 425 001) following the instructions provided by the manufacturer.
(§6) FIG. 1. Dose response curves of cell growth inhibition in HCC1954, MDA-MB-175VII, CHL1 and BFTC-905.

SUIT2 = assay: Cell growth inhibition assay, SUIT2 (pancreatic); format: cell-based; details: Homo sapiens, SUIT-2, 72 h, 3 days, read-out: Single agent IC50 (μM), mean ± STD
Protocol: as §1, §2, §3

BT474 [5] = assay: Cell growth inhibition assay, BT474 (breast HER2+); format: cell-based; details: Homo sapiens, BT-474, 72 h, 3 days, read-out: Single agent IC50 (μM), mean ± STD
Protocol: as §1, §2, §3

BT474-J4 [6] = assay: Cell apoptosis assay, DNA fragmentation, BT474-J4; format: cell-based, Human; details: 48 hours, Roche Cell Death ELISA, combination at 2 to 1 molar ratio A:B (FIG. 2B)
Protocol: as §1, §5, §6

SKBR3 = assay: Cell growth inhibition assay, SKBR3 (breast HER2+); format: cell-based; details: Homo sapiens, SK-BR-3, 72 h, 3 days, read-out: Single agent IC50 (μM), mean ± STD
Protocol: as §1, §2, §3

HCC2218 = assay: Cell growth inhibition assay, HCC2218 (breast HER2+); format: cell-based; details: Homo sapiens, HCC2218, 72 h, 3 days, read-out: Single agent IC50 (μM), mean ± STD
Protocol: as §1, §2, §3

AU565 = assay: Cell growth inhibition assay, AU565 (breast HER2+); format: cell-based; details: Homo sapiens, AU565, 72 h, 3 days, read-out: Single agent IC50 (μM), mean ± STD
Protocol: as §1, §2, §3

[7] = tested on: HER2 positive (HER2+) breast tumor lines; assay: Cell growth inhibition assay, text summary over HER2+ breast lines; format: cell-based; details: Homo sapiens; the HER2+ breast cancer lines listed in Table 1; read-out: IC50 as a single agent
Protocol: as §1, §2, §3

HCC1419 = assay: Cell growth inhibition assay, HCC1419 (breast HER2+); format: cell-based; details: Homo sapiens, HCC1419, 72 h, 3 days, read-out: Single agent IC50 (μM), mean ± STD
Protocol: as §1, §2, §3

| SMILES | IC50 (SW780) | IC50 [1] | IC50 (SW403) | IC50 (SKMEL5; Homo sapiens, SK-MEL-5, 72 h) | IC50 (NCI-H747) | IC50 (647V) | IC50 (T84) | IC50 (HPAF-11) | sensitivity as single agents, in words [2] | IC50 (NCI-H508) | IC50 (HCC1954) | IC50 (CHL1) | IC50 (Capan-1) | IC50 (JimT-1) | sensitivity to cell growth inhibition, in words (JimT-1) | IC50 (MDA-MB-453) | IC50 (LS174T) | IC50 (BT474-J4 [3]) | IC50 (BFTC-905) | IC50 (KPL4) | further results |
| --- | --- | --- | --- | --- | --- | --- | --- | --- | --- | --- | --- | --- | --- | --- | --- | --- | --- | --- | --- | --- | --- |
| CS(=O)(=O)CCNCc1ccc(-c2ccc3ncnc(Nc4ccc(OCc5cccc(F)c5)c(Cl)c4)c3c2)o1 [Compound A, N-{3-Chloro-4-[(3-fluorobenzyl)oxy]phenyl}-6-[5-({[2-(methanesulphonyl)ethyl]amino}methyl)-2-furyl]-4-quinazolinamine] | 4.11 ± 1.39 µM | 149 to 7180 nM | 5.36 ± 1.55 µM | 4.74 ± 1.08 µM | 2.64 ± 1.75 µM | > 10 µM | 4.28 ± 1.35 µM | 10.5 ± 2.77 µM | resistant | 0.149 ± 0.205 µM | 2.41 ± 1.57 µM | 0.138 ± 0.004 µM | > 10 µM | > 10 µM | resistant | 4.48 ± 1.47 µM | 7.18 ± 3.93 µM | > 10 µM | 4.28 ± 0.073 µM | < 1 µM | IC50 (SUM149): 4.73 ± 1.37 µM; IC50 (A375 S2): > 10 µM; IC50 (MDAMB175VII): 0.146 ± 0.035 µM; apoptosis induction determined by DNA fragmentation (BT474 [4]): induced apoptosis; IC50 (SUIT2): > 10 µM |
| CC(=O)Nc1cccc(-n2c(=O)n(C3CC3)c(=O)c3c(Nc4ccc(I)cc4F)n(C)c(=O)c(C)c32)c1 [Compound B, N-{3-[3-cyclopropyl-5-(2-fluoro-4-iodo-phenylamino)-6,8-dimethyl-2,4,7-trioxo-3,4,6,7-tetrahydro-2H-pyrido[4,3-d]pyrimidin-1-yl]phenyl}acetamide] | 0.07 ± 0.042 µM | 3 to 99 nM | 0.005 ± 0.004 µM | ≤ 0.003 µM | 0.003 ± 0.002 µM | > 1 µM | 0.075 ± 0.039 µM | 0.059 ± 0.03 µM | sensitive | 0.019 ± 0.005 µM | > 1 µM | 0.461 ± 0.382 µM | 0.086 ± 0.007 µM | > 1 µM | resistant | > 1 µM | 0.099 ± 0.053 µM | > 1 µM | 0.012 ± 0.003 µM | > 1 µM | IC50 (BT474 [5]): > 1 µM; IC50 (SKMEL5): 0.003 µM; apoptosis induction determined by DNA fragmentation (BT474-J4 [6]): not active to induce apoptosis; IC50 (SKBR3): > 1 µM; IC50 (HCC2218): > 1 µM; IC50 (AU565): > 1 µM; IC50 [7]: > 1000 nM; IC50 (HCC1419): > 1 µM; apoptosis induction determined by DNA fragmentation (BT474 [4]): not active to induce apoptosis; IC50 (SUIT2): 0.196 ± 0.269 µM |
